{"source": "patent US20240247048A1", "about": "(EMORY UNIVERSITY, priority 2021, published 2024)", "key": {"[1]": {"experiment": "toxicity in immunologically naive C57BL/6 mice", "assay_type": "in vivo", "conditions": "for H&E staining of colon and lung tissue: FIG. 29c-29d; for overall survival, activity levels or weight of mice: daily s.c. for 10 days, same dose as anti-cancer protocol, FIG. 29a; for toxicity in C57BL/6 mice: daily s.c. injection for 10 days, analyzed day 11, FIG. 29", "source_text": "C57BL/6 mice received daily subcutaneous injection of ANT008 or ANT308 for 10 days (n=5 per group) and analyzed for evidence of toxicity on day 11. (FIG. 29A) Body weight in grams during the duration of drug administration; (FIG. 29B) Number of WBCs, RBCs and platelets in blood as per complete blood count (left) proportions of T cells, B cells, NK cells, DCs and MDSCs in spleen as identified by flow cytometry (right) are plotted. Representative H&E stained sections of (FIG. 29C) colon (top), lungs (bottom) and (FIG. 29D) liver are shown. Arrows in FIG. 29D show the focal hepatic lesions in liver. […] C57BL/6 mice received daily subcutaneous injection of 30 ug of ANT308 (n=6) or a combination of 30 ug of ANT308 daily along with 200 ug of anti-PD1 every 3 days (n=6), for a duration of 4 days. Mice receiving scrambled peptide and isotype IgG served as control (n=4). (FIG. 29E) Weight of the mice, (FIG. 29F) complete blood count (CBC) and (FIG. 29G) serum chemistries after 4 days of treatment are plotted. P values in FIGS. 29B, 29E, 29F, and 29G were calculated by ANOVA followed by Dunnett's post-test. Error bars represent mean and standard deviation. *p<0.05, **p<0.01.\nTo evaluate the effect of VIP-R-mediated signaling inhibition on the growth of PDAC tumors in vivo, three different murine PDAC tumors (KPC-Luc, MT5 and Panc02) were implanted in syngeneic immunocompetent C57BL/6 mice. After tumors were palpable, mice were randomly allocated to treatment with VIP-R antagonists and/or anti-PD-1 monoclonal antibody, or control groups that received scrambled peptide or isotype-matched IgG. […] In addition to the antitumor efficacy, the safety of VIP-R antagonists in immunologically naïve mice was confirmed (FIGS. 29a-29g).\nHistology. All tissues for histology were fixed at 4° C. for 2-3 days in 4% paraformaldehyde in PBS, embedded in paraffin and cut into 5-μm thick sections. Slides were deparaffinized with EZ-Prep (#05279771001, Ventana, Tucson, AZ) and then were antigen retrieved for 64 minutes with CC1 reagent (#950-500, Ventana, Tucson, AZ). Mouse anti-VPAC1 and anti-VPAC2 from Sigma Aldrich (St. Louis, MO) diluted at 1:500 or rabbit anti-cytokeratin-19 (Abcam, Cambridge, MA) diluted at 1:500 were applied and incubated for 40 minutes. DISCOVERY OmniMap anti-mouse or anti-rabbit HRP was applied and incubated for 12 minutes. The detection was completed in combination with DISCOVERY ChromoMap DAB kit as per manufacturer's recommendations. Pancreas harvested from mice with orthotopically implanted KPC-Luc tumors or colon, liver and inflated lungs harvested from naïve C57BL/6 mice receiving ANT008 or ANT308 were formalin-fixed and paraffin embedded before being stained with H&E (Leica 560 MX, Wetzlar, Germany) or Masson's Trichrome (Polyscientific Inc., Bay Shore, NY). All slides were dehydrated, cover-slipped and scanned on Hamamatsu Nanozoomer 2.0 HT at 40× and reviewed by a pathologist."}, "[2]": {"test_system": "C1498 acute myeloid leukemia cells", "experiment": "survival of mice engrafted with C1498 acute myeloid leukemia", "assay_type": "in vivo, mouse", "parameters": "percentage of survival: concentration or dose not given beside the values", "conditions": "for Median survival time / Percentage alive day 60: 1 x 10E6 C1498 i.v. on day 0, 10 ug peptide s.c. daily on days 6-12", "protocol": "B6 (CD45.2, H-2K^b) mice were administered C1498 1×10^6/mouse through tail vein. […] Survival of the mice was observed daily. Data were pooled from 3 replicated experiments.\nB6 (CD45.2, H-2K^b) mice were administered C1498 1×10^6/mouse through tail vein. […] Survival of the mice was observed daily. Survival of the mice were pooled from 3 replicated experiments and analyzed by log-rank test compared with the survival of mice treated with scrambled peptide.\nB6 SJL (CD45.1, H-2K^b) mice were administered C1498 (CD45.2 H-2K^b) 1×10^6/mouse through tail vein. […] The mice were bled weekly from the submandibular vein, starting from day 6, prior to the administration of peptides. Antibodies to CD45.2 identified myeloid leukemia cells and antibodies to CD45.1 identified murine leukocytes of the host.\n(§1) VIP-related peptides tested in silico for predicted binding affinities to human VPAC1 and VPAC2 (Creative Biolabs). Docking scores show predicted free energy change associated with peptide binding. Note that a greater negative score is predicted to be associated with higher binding affinity. Based upon an initial screen of 300 peptides for binding affinity to VPAC1 and screening a subset of 100 peptides for binding affinity to VPAC2, a select group of peptides were synthesized and tested for their ability to stimulate proliferation of luciferase+ mouse T cells in vitro. The lowest concentration of peptide that led to maximal luminescence is shown. Proliferation data represents the relative level of luminescence from quadruplicate wells containing 1×10E5 T cells/well in a 96 well tissue culture plate stimulated for 96 hours with plate-bound anti-CD3 antibodies. Confirmatory in vivo testing of select peptides was then performed based upon their ability to induce autologous anti-leukemia responses in C57Bl/6 mice that had been previously injected with 1×10E6 C1498 acute myeloid leukemia cells. Leukemia cells were injected on day 0, 10 ug peptide was injected s.c. daily on days 6-12. The predicted binding affinity to VPAC1 and/or VPAC2 was associated with enhanced activity in stimulating mouse T cell proliferation and anti-leukemia activity in mice.\nTo test the ability of the disclosed VIP-R antagonists to effect survival to acute myeloid leukemia survival, B6 (CD45.2, H-2K^b) mice were administered C1498 1×10^6/mouse through tail vein. […] Survival of the mice was observed daily."}, "[3]": {"test_system": "luciferase+ mouse T cells", "experiment": "proliferation of luciferase+ mouse T cells in vitro (plate-bound anti-CD3, luminescence)", "assay_type": "cell-based", "conditions": "96 hours; for lowest concentration of peptide that led to maximal luminescence: luc+ T cell proliferation, plate-bound anti-CD3; for luc+ T cell proliferation: relative luminescence, quadruplicate wells, plate-bound anti-CD3, daily addition of peptide, at the concentration in brackets", "source_text": "as §1"}, "intraocular melanoma": {"test_system": "intraocular melanoma", "experiment": "liver metastases in intraocular melanoma mouse model", "assay_type": "in vivo"}}, "note": "“Also recorded” adds a separate entry of the source."}
{"sequence": "KPRRPYTDNYTRLRKQMAVKKYLNLILN [ANT008]", "values": [{"measurement": "H&E staining of colon and lung tissue", "setting": "[1]", "result": "did not show lymphocytic infiltrates or histopathology to suggest auto-immunity"}, {"measurement": "overall survival, activity levels or weight of mice", "setting": "[1]", "result": "did not affect"}, {"measurement": "toxicity in C57BL/6 mice", "setting": "[1]", "result": "no adverse toxicity"}, {"measurement": "Median survival time", "setting": "[2]", "result": 35, "unit": "days"}, {"measurement": "Percentage alive day 60", "setting": "[2]", "result": 16, "unit": "%"}, {"measurement": "percentage of survival", "setting": "[2]; FIG. 3, leukemia-bearing mice treated with peptide", "result": 16, "unit": "%"}, {"measurement": "lowest concentration of peptide that led to maximal luminescence", "setting": "[3]", "result": 1, "unit": "µM"}, {"measurement": "luc+ T cell proliferation", "setting": "[3]", "result": 185, "unit": "% + 24%"}]}
{"sequence": "KPRRPYTSDYTRLRKQMAVKKYLNLILN [ANT308]", "values": [{"measurement": "growth of liver metastases", "setting": "intraocular melanoma; 3 weeks after tumor inoculation, N=6, FIG. 36", "result": "suppressed growth"}, {"measurement": "size of intraocular melanoma", "setting": "intraocular melanoma; FIG. 38", "result": "not affected"}, {"measurement": "angiogenesis of liver metastases", "setting": "intraocular melanoma; N=10, FIG. 37", "result": "inhibited angiogenesis"}, {"measurement": "hepatic metastases in 3 weeks", "setting": "intraocular melanoma; n=6, FIG. 34", "result": "decreased"}, {"measurement": "H&E staining of colon and lung tissue", "setting": "[1]", "result": "did not show lymphocytic infiltrates or histopathology to suggest auto-immunity"}, {"measurement": "overall survival, activity levels or weight of mice", "setting": "[1]", "result": "did not affect"}, {"measurement": "toxicity in C57BL/6 mice", "setting": "[1]", "result": "no adverse toxicity"}, {"measurement": "Median survival time", "setting": "[2]", "result": 34, "unit": "days"}, {"measurement": "Percentage alive day 60", "setting": "[2]", "result": 40, "unit": "%"}, {"measurement": "clearance of C1498 leukemia and long-term survival", "setting": "[2]; FIGS. 39 and 40", "result": "dose-dependent clearance; also recorded: schedule-dependent clearance"}, {"measurement": "lowest concentration of peptide that led to maximal luminescence", "setting": "[3]", "result": 3, "unit": "µM"}, {"measurement": "luc+ T cell proliferation", "setting": "[3]", "result": 109, "unit": "% + 8%"}]}
